Experimental data from patent US4055553A, “(Gly3 -Ala)^1 -somatostatin” (American Home Products Corporation, priority 1975, dated 1977).

Assays:
glucagon = experiment: arginine-stimulated hormone release in Nembutal-anaesthetised rats, blood assayed for glucagon; assay type: in vivo, albino male rats
Procedure: (§1) The in vivo activity of the compounds of this invention was established by subjecting (Gly3 -Ala)^1 -Somatostatin, as a representative compound of this invention, to the following standard test procedure: three groups of nine albino male rats were arranged to provide a control group, a group for observation of Somatostatin activity as the standard and a group for the study of the test compound (Gly3 -Ala)^1 -Somatostatin. Nembutal (50 mg/kg) was injected intraperitoneally into each rat. Fifteen minutes later a subcutaneous injection of the test compound, somatostatin (200 μg/kg) and physiological saline was administered separately to each of the three groups of rats. Ten minutes later 0.5 milliliters of arginine (300 mg/ml, pH 7.2) was injected into the rats heart. The rats were decapitated five minutes later and their blood was collected in Trasylol® -EDTA. Aliquot samples were assayed for growth hormone, glucagon and/or insulin. The compound of this invention, selected as representative of the group of compounds disclosed for test pruposes, was employed in two distinct test procedures at the 100 μg/kg and 300 μg/kg dose levels.

insulin = experiment: arginine-stimulated hormone release in Nembutal-anaesthetised rats, blood assayed for insulin; assay type: in vivo, albino male rats
Procedure: as §1

growth hormone = experiment: arginine-stimulated hormone release in Nembutal-anaesthetised rats, blood assayed for growth hormone; assay type: in vivo, albino male rats; conditions: saline control 133 ± 15
Procedure: as §1

[1] = test system: growth hormone, glucagon and/or insulin; experiment: standard in vivo test procedure, overall activity compared with somatostatin; design: species or system albino male rats; conditions: at the 100 and 300 μg/kg dose levels
Procedure: as §1

Q: How did the Glucagon (glucagon; first test, test compound 100 μg/kg subcutaneous, arginine intracardiac 10 min later, blood 5 min after arginine, saline control 6.4 ± 1.5) turn out when C[C@H](NC(=O)CNC(=O)CNC(=O)CN)C(=O)NCC(=O)N[C@H]1CSSC[C@@H](C(=O)O)NC(=O)[C@H](CO)NC(=O)[C@H]([C@@H](C)O)NC(=O)[C@H](Cc2ccccc2)NC(=O)[C@H]([C@@H](C)O)NC(=O)[C@H](CCCCN)NC(=O)[C@H](Cc2c[nH]c3ccccc23)NC(=O)[C@H](Cc2ccccc2)NC(=O)[C@H](Cc2ccccc2)NC(=O)[C@H](CC(N)=O)NC(=O)[C@H](CCCCN)NC1=O [(Gly3 -Ala)^1 -Somatostatin, glycyl-glycyl-glycyl-L-alanylglycyl-L-cysteinyl-L-lysyl-L-asparaginyl-L-phenylalanyl-L-phenylalanyl-L-tryptophyl-L-lysyl-L-threonyl-L-phenylalanyl-L- threonyl-L-seryl-L-cysteine cyclic (6→.intg.) disulfide, triacetate] was run?
A: Its Glucagon is 0.5 ± 0.1 picograms/ml.

Q: What about the Glucagon (glucagon; second test, test compound 300 μg/kg subcutaneous, saline control 4.2 ± 0.6) of the same molecule?
A: The Glucagon was 1.4 ± 0.7 picograms/ml.

Q: And the Insulin (insulin; first test, test compound 100 μg/kg subcutaneous, arginine intracardiac 10 min later, blood 5 min after arginine, saline control 199 ± 15)?
A: The Insulin was 130 ± 14 μ units/ml.

Q: What about the Insulin (insulin; second test, test compound 300 μg/kg subcutaneous, saline control 165 ± 13) of the same molecule?
A: The Insulin was 104 ± 10 μ units/ml.

Q: What about the GH (growth hormone; second test, test compound 300 μg/kg subcutaneous) of the same molecule?
A: Its GH is 27 ± 7 ng/mL.

Q: What about the “activity relative to somatostatin itself” value [1] of the same molecule?
A: The value was “comparable in activity”.

Q: What does the source list for C[C@H](N)C(=O)NCC(=O)N[C@H]1CSSC[C@@H](C(=O)O)NC(=O)[C@H](CO)NC(=O)[C@H]([C@@H](C)O)NC(=O)[C@H](Cc2ccccc2)NC(=O)[C@H]([C@@H](C)O)NC(=O)[C@H](CCCCN)NC(=O)[C@H](Cc2c[nH]c3ccccc23)NC(=O)[C@H](Cc2ccccc2)NC(=O)[C@H](Cc2ccccc2)NC(=O)[C@H](CC(N)=O)NC(=O)[C@H](CCCCN)NC1=O [Somatostatin]?
A: Glucagon (glucagon; first test (run beside the 100 μg/kg group), somatostatin standard 200 μg/kg subcutaneous, saline control 6.4 ± 1.5): 1.5 ± 0.8 picograms/ml; Glucagon (glucagon; second test (run beside the 300 μg/kg group), somatostatin standard 200 μg/kg subcutaneous, saline control 4.2 ± 0.6): 1.6 ± 0.9 picograms/ml; Insulin (insulin; first test (run beside the 100 μg/kg group), somatostatin standard 200 μg/kg subcutaneous, saline control 199 ± 15): 202 ± 29 μ units/ml; Insulin (insulin; second test (run beside the 300 μg/kg group), somatostatin standard 200 μg/kg subcutaneous, saline control 165 ± 13): 115 ± 11 μ units/ml; GH (growth hormone; second test (run beside the 300 μg/kg group), somatostatin standard 200 μg/kg subcutaneous): 12 ± 2 ng/mL
